Laboratory results reported in patent US9567302B2, “Carbamate compounds and of making and using same” (Abide Therapeutics, Inc., priority 2012, dated 2017).

Legend:
Type in all cases: biochemical
Parameters in all cases: from tissue; host or cells: mouse brain membrane fraction
Conditions in all cases: 30 min preincubation at 37° C.
[1] = molecular target: T1, FAAH (Mus musculus, UniProt O08914); assay: In vitro competitive activity-based protein profiling (FP-Rh), mouse FAAH
T1 sequence (O08914 1-579): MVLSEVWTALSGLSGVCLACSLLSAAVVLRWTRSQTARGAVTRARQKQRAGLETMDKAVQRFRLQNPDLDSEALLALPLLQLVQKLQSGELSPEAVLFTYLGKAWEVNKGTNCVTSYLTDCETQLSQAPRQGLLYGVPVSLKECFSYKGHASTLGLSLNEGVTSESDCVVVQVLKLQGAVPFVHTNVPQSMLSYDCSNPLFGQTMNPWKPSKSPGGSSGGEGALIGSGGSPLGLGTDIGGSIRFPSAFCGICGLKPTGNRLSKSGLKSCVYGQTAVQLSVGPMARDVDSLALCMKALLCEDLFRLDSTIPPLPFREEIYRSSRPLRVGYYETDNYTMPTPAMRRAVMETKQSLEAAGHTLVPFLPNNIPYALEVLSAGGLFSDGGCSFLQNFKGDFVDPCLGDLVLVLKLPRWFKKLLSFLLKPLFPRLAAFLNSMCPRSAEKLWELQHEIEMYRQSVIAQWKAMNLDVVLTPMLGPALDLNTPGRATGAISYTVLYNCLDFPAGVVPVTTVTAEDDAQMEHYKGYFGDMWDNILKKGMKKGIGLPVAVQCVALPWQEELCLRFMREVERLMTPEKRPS
Procedure: (§1) In Vitro Competitive Activity-Based Protein Profiling.
(§2) Proteomes (mouse brain membrane fraction or cell lysates) (50 μL, 1.0 mg/ml total protein concentration) were preincubated with varying concentrations of inhibitors at 37° C. After 30 min, FP-Rh (1.0 μL, 50 μM in DMSO) was added and the mixture was incubated for another 30 min at 37° C. Reactions were quenched with SDS loading buffer (50 μL—4×) and run on SDS-PAGE.

[2] = molecular target: T2, ABHD6 (Mus musculus, UniProt Q8R2Y0); assay: In vitro competitive activity-based protein profiling (FP-Rh), mouse ABHD6
T2 sequence (Q8R2Y0 1-336): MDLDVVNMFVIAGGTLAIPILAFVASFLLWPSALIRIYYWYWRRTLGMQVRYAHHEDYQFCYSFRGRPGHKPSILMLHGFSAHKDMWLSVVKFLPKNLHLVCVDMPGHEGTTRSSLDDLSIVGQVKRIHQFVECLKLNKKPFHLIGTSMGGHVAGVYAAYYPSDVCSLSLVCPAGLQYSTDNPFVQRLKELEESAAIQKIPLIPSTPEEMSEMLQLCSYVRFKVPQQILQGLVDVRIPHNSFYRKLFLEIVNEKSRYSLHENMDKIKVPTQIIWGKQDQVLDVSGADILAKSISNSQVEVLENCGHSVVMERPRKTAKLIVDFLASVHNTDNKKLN
Procedure: as §1, §2

[3] = molecular target: T3, MAGL (Mus musculus, UniProt O35678); assay: In vitro competitive activity-based protein profiling (FP-Rh), mouse MAGL
T3 sequence (O35678 1-303): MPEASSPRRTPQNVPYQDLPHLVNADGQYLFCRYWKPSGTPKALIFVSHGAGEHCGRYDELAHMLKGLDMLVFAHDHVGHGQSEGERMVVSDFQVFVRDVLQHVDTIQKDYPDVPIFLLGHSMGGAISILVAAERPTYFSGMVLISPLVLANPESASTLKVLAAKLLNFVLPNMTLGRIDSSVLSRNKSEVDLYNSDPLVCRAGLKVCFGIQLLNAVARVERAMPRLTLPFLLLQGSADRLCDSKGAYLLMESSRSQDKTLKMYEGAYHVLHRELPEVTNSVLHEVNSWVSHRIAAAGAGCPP
Procedure: as §1, §2

| IC50 ([1]; Table 1, mouse proteome) | IC50 ([2]; Table 1, mouse proteome) | IC50 ([3]; Table 1, mouse proteome) | IC50 ([1]; Table 2, mouse proteome) | IC50 ([2]; Table 2, mouse proteome) | IC50 ([3]; Table 2, mouse proteome) | SMILES |
| --- | --- | --- | --- | --- | --- | --- |
| > 10000 nM | 1000 to 10000 nM | 1000 to 10000 nM | – | – | – | CC1(C)CC(=O)N(OC(=O)N2CCN(C(c3ccc(Cl)cc3)c3ccc(Cl)cc3)CC2)C1=O [Example 42, 3,3-Dimethyl-2,5-dioxopyrrolidin-1-yl 4-(bis(4-chlorophenyl)methyl)piperazine-1-carboxylate] |
| > 10000 nM | 100 to 1000 nM | 100 to 1000 nM | – | – | – | CCCC1CC(=O)N(OC(=O)N2CCN(C(c3ccc(Cl)cc3)c3ccc(Cl)cc3)CC2)C1=O (stereo not drawn) [Example 43, 2,5-Dioxo-3-propylpyrrolidin-1-yl 4-(bis(4-chlorophenyl)methyl)piperazine-1-carboxylate] |
| > 10000 nM | 1000 to 10000 nM | 1000 to 10000 nM | – | – | – | O=C(ON1C(=O)CC(c2ccccc2)C1=O)N1CCN(C(c2ccc(Cl)cc2)c2ccc(Cl)cc2)CC1 (stereo not drawn) [Example 44, 2,5-Dioxo-3-phenylpyrrolidin-1-yl 4-(bis(4-chlorophenyl)methyl)piperazine-1-carboxylate] |
| > 10000 nM | 100 to 1000 nM | 1000 to 10000 nM | – | – | – | O=C(ON1C(=O)C2CCCCC2C1=O)N1CCN(C(c2ccc(Cl)cc2)c2ccc(Cl)cc2)CC1 (stereo not drawn) [Example 45, 1,3-Dioxohexahydro-1H-isoindol-2(3H)-yl 4-(bis(4-chlorophenyl)methyl)piperazine-1-carboxylate] |
| > 10000 nM | 100 to 1000 nM | 100 to 1000 nM | – | – | – | CC(C)C1NC(=O)N(OC(=O)N2CCN(C(c3ccc(Cl)cc3)c3ccc(Cl)cc3)CC2)C1=O (stereo not drawn) [Example 47, 4-Isopropyl-2,5-dioxoimidazolidin-1-yl 4-(bis(4-chlorophenyl)methyl)piperazine-1-carboxylate] |
| < 100 nM | < 100 nM | < 100 nM | – | – | – | O=C(ON1C(=O)CNC1=O)N1CCC(CCc2ccc(Cl)cc2)CC1 [Example 48, 2,5-Dioxoimidazolidin-1-yl 4-(4-chlorophenethyl)piperidine-1-carboxylate] |
| 100 to 1000 nM | < 100 nM | < 100 nM | – | – | – | CN1CC(=O)N(OC(=O)N2CCC(CCc3ccc(Cl)cc3)CC2)C1=O [Example 49, 3-Methyl-2,5-dioxoimidazolidin-1-yl 4-(4-chlorophenethyl)piperidine-1-carboxylate] |
| < 100 nM | < 100 nM | 100 to 1000 nM | – | – | – | O=C(ON1C(=O)CN(Cc2ccccc2)C1=O)N1CCC(CCc2ccc(Cl)cc2)CC1 [Example 50, 3-Benzyl-2,5-dioxoimidazolidin-1-yl 4-(4-chlorophenethyl)piperidine-1-carboxylate] |
| 1000 to 10000 nM | < 100 nM | 1000 to 10000 nM | – | – | – | COc1ccc(N2CCN(C(=O)ON3C(=O)CC(c4ccccc4)C3=O)CC2)cc1 (stereo not drawn) [Example 54, 2,5-Dioxo-3-phenylpyrrolidin-1-yl 4-(4-methoxyphenyl)piperazine-1-carboxylate] |
| 1000 to 10000 nM | < 100 nM | > 10000 nM | – | – | – | COc1ccc(N2CCN(C(=O)ON3C(=O)NC(C(C)C)C3=O)CC2)cc1 (stereo not drawn) [Example 55, 4-Isopropyl-2,5-dioxoimidazolidin-1-yl 4-(4-methoxyphenyl)piperazine-1-carboxylate] |
| > 10000 nM | 100 to 1000 nM | < 100 nM | – | – | – | CN1CC(=O)N(OC(=O)N2CCN(C(c3ccc(Cl)cc3)c3ccc(Cl)cc3)CC2)C1=O [Example 56, 3-Methyl-2,5-dioxoimidazolidin-1-yl 4-(bis(4-chlorophenyl)methyl)piperazine-1-carboxylate] |
| > 10000 nM | > 10000 nM | > 10000 nM | – | – | – | O=C(ON1C(=O)CC(c2ccccc2)C1=O)N1CCCCC1 (stereo not drawn) [Example 60, 2,5-Dioxo-3-phenylpyrrolidin-1-yl piperidine-1-carboxylate] |
| > 10000 nM | > 10000 nM | > 10000 nM | – | – | – | O=C(ON1C(=O)CNC1=O)N1CCCCC1 [Example 61, 2,5-Dioxoimidazolidin-1-yl piperidine-1-carboxylate] |
| – | – | – | > 10000 nM | 1000 to 10000 nM | 1000 to 10000 nM | O=C(ON1C(=O)CCC1=O)N1CCN(Cc2ccc(N3CCOCC3)cc2F)CC1 [Example 62, 2,5-Dioxopyrrolidin-1-yl 4-(2-fluoro-4-morpholinobenzyl)-piperazine-1-carboxylate] |
| – | – | – | 1000 to 10000 nM | 100 to 1000 nM | < 100 nM | O=C(ON1C(=O)CCC1=O)N1CCN(Cc2ccc(Br)cc2N2CCCCC2)CC1 [Example 65, 2,5-Dioxopyrrolidin-1-yl 4-(4-bromo-2-(piperidin-1-yl)benzyl)piperazine-1-carboxylate] |

Further lines, the compound ahead of its results:

| SMILES | IC50 ([1]; Table 1, mouse proteome) | IC50 ([2]; Table 1, mouse proteome) | IC50 ([3]; Table 1, mouse proteome) | IC50 ([1]; Table 2, mouse proteome) | IC50 ([2]; Table 2, mouse proteome) | IC50 ([3]; Table 2, mouse proteome) |
| --- | --- | --- | --- | --- | --- | --- |
| C#CCCCCNC(=O)ON1C(=O)CCC1=O [Example 28, 2,5-Dioxopyrrolidin-1-yl N-(hex-5-yn-1-yl)carbamate] | 1000 to 10000 nM | 1000 to 10000 nM | > 10000 nM | – | – | – |
| O=C(ON1C(=O)CCC1=O)N1CCCC1 [Example 29, 2,5-Dioxopyrrolidin-1-yl pyrrolidine-1-carboxylate] | > 10000 nM | > 10000 nM | > 10000 nM | – | – | – |
| O=C(ON1C(=O)CCC1=O)N1CCC1 [Example 30, 2,5-Dioxopyrrolidin-1-yl azetidine-1-carboxylate] | > 10000 nM | > 10000 nM | > 10000 nM | – | – | – |
| CCCCCCCC/C=C\CCCCCCCCNC(=O)ON1C(=O)CCC1=O [Example 31, 2,5-Dioxopyrrolidin-1-yl N-[(9Z)-octadec-9-en-1-yl]carbamate] | 1000 to 10000 nM | 1000 to 10000 nM | 1000 to 10000 nM | – | – | – |
| O=C(ON1C(=O)c2ccccc2C1=O)N1CCC(CCc2ccc(Cl)cc2)CC1 [Example 32, 1,3-Dioxo-2,3-dihydro-1H-isoindol-2-yl 4-[2-(4-chlorophenyl)ethyl]piperidine-1-carboxylate] | < 100 nM | < 100 nM | 1000 to 10000 nM | – | – | – |
| O=C(ON1C(=O)c2ccccc2C1=O)N1CCN(C(c2ccc(Cl)cc2)c2ccc(Cl)cc2)CC1 [Example 33, 1,3-Dioxo-2,3-dihydro-1H-isoindol-2-yl 4-[bis(4-chlorophenyl)methyl]piperazine-1-carboxylate] | > 10000 nM | 100 to 1000 nM | > 10000 nM | – | – | – |
| COc1ccc(N2CCN(C(=O)ON3C(=O)c4ccccc4C3=O)CC2)cc1 [Example 34, 1,3-Dioxo-2,3-dihydro-1H-isoindol-2-yl 4-(4-methoxyphenyl)piperazine-1-carboxylate] | 100 to 1000 nM | < 100 nM | > 10000 nM | – | – | – |
| O=C(ON1C(=O)CCC1=O)N1CCOCC1 [Example 38, 2,5-Dioxopyrrolidin-1-yl morpholine-4-carboxylate] | > 10000 nM | > 10000 nM | > 10000 nM | – | – | – |
| COc1ccc(N2CCN(C(=O)ON3C(=O)CC(C)(C)C3=O)CC2)cc1 [Example 52, 3,3-Dimethyl-2,5-dioxopyrrolidin-1-yl 4-(4-methoxyphenyl)piperazine-1-carboxylate] | > 10000 nM | 100 to 1000 nM | > 10000 nM | – | – | – |
| COc1ccc(N2CCN(C(=O)ON3C(=O)C4CCCCC4C3=O)CC2)cc1 (stereo not drawn) [Example 53, 1,3-Dioxohexahydro-1H-isoindol-2(3H)-yl 4-(4-methoxyphenyl)piperazine-1-carboxylate] | > 10000 nM | < 100 nM | > 10000 nM | – | – | – |
| CN(C)C(=O)ON1C(=O)CCC1=O [Example 57, 2,5-Dioxopyrrolidin-1-yl dimethylcarbamate] | > 10000 nM | > 10000 nM | > 10000 nM | – | – | – |
| CN(C)C(=O)ON1C(=O)CC(c2ccccc2)C1=O (stereo not drawn) [Example 59, 2,5-Dioxo-3-phenylpyrrolidin-1-yl dimethylcarbamate] | > 10000 nM | > 10000 nM | > 10000 nM | – | – | – |
